Data on 26 molecules can be found in ChEMBL document CHEMBL3813593, “Design, synthesis and biological evaluation of 4-aminopyrimidine-5-cabaldehyde oximes as dual inhibitors of c-Met and VEGFR-2” (Bioorg Med Chem, 2016).

Data set [1] in a line: Lipophilicity, log P of compound by shake flask method. Format: physicochemical. Particulars: octanol/water.
Another data set is described as follows: cells. The note with it: Mus musculus, BaF3, 72 h.
The subject of a further data set is HUVEC. Briefly: Antiproliferative activity against recombinant human VEGF-stimulated HUVEC after 120 hrs by CCK8 assay. Format: functional, cell-based. (In general: Formazan colour is commonly taken as a measure of viable cells.)
The target of data set [2] is Hepatocyte growth factor receptor (Homo sapiens, UniProt P08581). Briefly: Inhibition of recombinant c-Met (unknown origin) using poly (Glu, Tyr) 4:1 as substrate incubated for 60 mins by ELISA. (In an ELISA, binding on a coated surface is turned into a signal by an enzyme label.)
Sequence of Hepatocyte growth factor receptor (P08581 whole entry): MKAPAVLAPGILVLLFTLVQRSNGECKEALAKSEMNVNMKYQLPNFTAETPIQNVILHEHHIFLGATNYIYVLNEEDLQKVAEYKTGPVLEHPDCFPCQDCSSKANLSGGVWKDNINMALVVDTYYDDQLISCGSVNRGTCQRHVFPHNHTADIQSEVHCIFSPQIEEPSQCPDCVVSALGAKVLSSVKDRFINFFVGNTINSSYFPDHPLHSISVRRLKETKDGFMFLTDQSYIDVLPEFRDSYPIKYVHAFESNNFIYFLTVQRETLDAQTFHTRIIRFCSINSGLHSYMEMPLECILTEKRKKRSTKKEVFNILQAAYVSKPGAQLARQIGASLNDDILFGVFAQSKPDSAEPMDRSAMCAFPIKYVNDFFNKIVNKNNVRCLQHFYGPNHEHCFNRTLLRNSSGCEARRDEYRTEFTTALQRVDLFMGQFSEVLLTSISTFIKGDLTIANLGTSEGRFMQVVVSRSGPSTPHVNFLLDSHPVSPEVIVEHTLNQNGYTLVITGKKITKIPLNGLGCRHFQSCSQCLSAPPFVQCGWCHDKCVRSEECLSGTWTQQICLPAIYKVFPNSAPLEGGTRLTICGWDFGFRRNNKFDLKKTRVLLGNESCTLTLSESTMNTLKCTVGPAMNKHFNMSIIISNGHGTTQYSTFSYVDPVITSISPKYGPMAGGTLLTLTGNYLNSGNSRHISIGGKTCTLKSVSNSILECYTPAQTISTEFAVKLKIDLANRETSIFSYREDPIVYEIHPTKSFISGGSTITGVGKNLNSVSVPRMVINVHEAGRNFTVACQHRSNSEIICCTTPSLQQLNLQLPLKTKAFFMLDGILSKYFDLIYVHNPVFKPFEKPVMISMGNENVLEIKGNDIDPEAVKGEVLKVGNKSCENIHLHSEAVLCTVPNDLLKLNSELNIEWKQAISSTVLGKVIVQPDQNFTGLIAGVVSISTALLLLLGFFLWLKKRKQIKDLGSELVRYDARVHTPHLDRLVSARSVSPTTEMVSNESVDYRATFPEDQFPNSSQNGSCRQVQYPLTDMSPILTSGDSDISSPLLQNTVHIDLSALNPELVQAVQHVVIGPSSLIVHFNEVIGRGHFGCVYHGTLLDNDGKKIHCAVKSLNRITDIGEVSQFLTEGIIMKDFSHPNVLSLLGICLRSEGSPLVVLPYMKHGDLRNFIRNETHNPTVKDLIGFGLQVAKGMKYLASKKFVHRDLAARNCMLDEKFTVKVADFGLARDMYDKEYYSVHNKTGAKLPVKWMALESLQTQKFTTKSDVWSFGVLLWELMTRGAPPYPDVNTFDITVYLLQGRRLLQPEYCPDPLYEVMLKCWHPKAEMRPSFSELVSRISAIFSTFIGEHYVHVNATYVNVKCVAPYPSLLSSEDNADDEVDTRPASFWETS
For data set [3], the target named is T1, Vascular endothelial growth factor receptor 2 (Homo sapiens, UniProt P35968). Kind of data set: Inhibition of recombinant VEGFR2 (unknown origin) using poly (Glu, Tyr) 4:1 as substrate incubated for 60 mins by ELISA.
T1 sequence (P35968 whole entry): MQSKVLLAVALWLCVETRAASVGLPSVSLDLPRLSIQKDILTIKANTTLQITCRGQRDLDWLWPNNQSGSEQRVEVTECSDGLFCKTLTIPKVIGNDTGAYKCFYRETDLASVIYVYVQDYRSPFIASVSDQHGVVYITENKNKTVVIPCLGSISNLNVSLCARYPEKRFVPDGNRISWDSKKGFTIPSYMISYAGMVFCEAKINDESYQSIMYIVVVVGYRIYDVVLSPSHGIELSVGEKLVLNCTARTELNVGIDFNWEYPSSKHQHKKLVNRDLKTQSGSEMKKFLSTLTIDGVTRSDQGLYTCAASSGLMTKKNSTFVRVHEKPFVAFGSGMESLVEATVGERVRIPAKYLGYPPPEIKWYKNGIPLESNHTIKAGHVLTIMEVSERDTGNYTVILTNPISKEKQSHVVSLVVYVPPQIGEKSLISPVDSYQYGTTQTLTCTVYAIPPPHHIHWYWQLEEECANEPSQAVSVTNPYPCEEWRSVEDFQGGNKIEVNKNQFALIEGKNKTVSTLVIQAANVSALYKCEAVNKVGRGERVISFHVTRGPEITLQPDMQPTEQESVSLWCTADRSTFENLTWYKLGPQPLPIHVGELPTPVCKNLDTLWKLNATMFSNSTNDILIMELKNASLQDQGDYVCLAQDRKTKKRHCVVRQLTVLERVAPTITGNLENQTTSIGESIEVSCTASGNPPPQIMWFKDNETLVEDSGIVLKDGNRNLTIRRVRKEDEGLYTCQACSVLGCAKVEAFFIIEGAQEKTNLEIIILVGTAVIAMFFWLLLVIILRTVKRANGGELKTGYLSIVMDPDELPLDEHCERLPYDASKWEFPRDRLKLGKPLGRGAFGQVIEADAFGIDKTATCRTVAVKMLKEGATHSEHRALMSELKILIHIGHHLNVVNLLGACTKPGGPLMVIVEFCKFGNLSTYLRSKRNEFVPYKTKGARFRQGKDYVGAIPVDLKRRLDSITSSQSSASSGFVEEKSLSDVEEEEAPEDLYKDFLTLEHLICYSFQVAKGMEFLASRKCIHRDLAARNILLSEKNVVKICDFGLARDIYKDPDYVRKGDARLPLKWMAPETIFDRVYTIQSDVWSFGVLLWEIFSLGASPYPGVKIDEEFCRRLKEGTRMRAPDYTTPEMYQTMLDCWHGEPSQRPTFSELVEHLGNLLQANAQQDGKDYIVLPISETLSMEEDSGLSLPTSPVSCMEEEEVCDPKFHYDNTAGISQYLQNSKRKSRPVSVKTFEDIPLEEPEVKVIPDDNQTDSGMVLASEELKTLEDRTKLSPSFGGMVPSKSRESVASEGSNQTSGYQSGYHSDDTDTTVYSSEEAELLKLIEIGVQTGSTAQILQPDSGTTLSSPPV
Data set [4] addresses T1, Vascular endothelial growth factor receptor 2. Briefly: Inhibition of VEGFR2 (unknown origin).

Molecules are shown by their SMILES. pIC50: −log10 of the molar value.

With `COCCCO/N=C/c1c(N)ncnc1Oc1ccc(NC(=O)C2(C(=O)Nc3ccc(F)cc3)CC2)cc1F`, the logP (in general, a log measure of how a compound divides between an organic and an aqueous phase) in data set [1] (read-out: logP) came out at 3.18. Further, the pIC50 (commonly the IC50 on a negative log10 scale, so that one unit is a factor of ten) in “cells” was 6.61.

As to `Nc1ncnc(Oc2ccc(NC(=O)C3(C(=O)Nc4ccc(F)cc4)CC3)cc2F)c1/C=N/OCCO`, the logP in data set [1] (read-out: logP) was 2.37. In the data set “cells”, this molecule gave a negative logarithm of the IC50 (pIC50) of 6.70.

As for `Nc1ncnc(Oc2ccc(NC(=O)C3(C(=O)Nc4ccc(F)cc4)CC3)cc2F)c1/C=N/OC1CCCCC1`, in data set [1] (read-out: logP), the log partition coefficient (logP) is 4.69. In the data set “cells”, this molecule gave a negative-log IC50 (pIC50) of 6.06.

`Nc1ncnc(Oc2ccc(NC(=O)C3(C(=O)Nc4ccc(F)cc4)CC3)cc2F)c1/C=N/OCCCN1CCOCC1`: the logP in data set [1] (read-out: logP) was 2.98. For the same molecule, the negative-log IC50 (pIC50) in the data set on HUVEC was 6.37; in “cells” it was 6.73.

Take `C#CCO/N=C/c1c(N)ncnc1Oc1ccc(NC(=O)C2(C(=O)Nc3ccc(F)cc3)CC2)cc1F`: in data set [1] (read-out: logP), the logP came out at 3.34. In “cells”, this molecule showed a pIC50 of 6.28.

Take `Nc1ncnc(Oc2ccc(NC(=O)C3(C(=O)Nc4ccc(F)cc4)CC3)cc2F)c1/C=N/OCCN1CCCC1`: the lipophilicity (logP) in data set [1] (read-out: logP) amounted to 3.5. For the same molecule, the negative logarithm of the IC50 (pIC50) in the data set on HUVEC was 6.77; in the data set “cells”, 6.79.

On to `Nc1ncnc(Oc2ccc(NC(=O)C3(C(=O)Nc4ccc(F)cc4)CC3)cc2F)c1/C=N/O`, for which, in data set [1] (read-out: logP), the lipophilicity (logP) stood at 2.62. The figures for the negative-log IC50 (pIC50) in the data set on HUVEC and in the data set “cells” were 6.59 and 6.71, respectively.

In the case of `COc1cc2c(Oc3ccc(NC(=O)C4(C(=O)Nc5ccc(F)cc5)CC4)cc3F)ccnc2cc1OCCCN1CCOCC1` [FORETINIB], the logP in data set [1] (read-out: logP) stood at 4.28.

Turning to `Nc1ncnc(Oc2ccc(NC(=O)C3(C(=O)Nc4ccc(F)cc4)CC3)cc2F)c1/C=N/OC1CCCC1`, the lipophilicity (logP) in data set [1] (read-out: logP) worked out at 4.27. In “cells”, this molecule showed a pIC50 of 6.13.

In the case of `Nc1ncnc(Oc2ccc(NC(=O)C3(C(=O)Nc4ccc(F)cc4)CC3)cc2F)c1/C=N/OCCCO`, the logP in data set [1] (read-out: logP) was determined as 2.67. Further, the pIC50 in the data set with HUVEC was 6.68; in “cells” it was 6.96.

Turning to `CC(O)CO/N=C/c1c(N)ncnc1Oc1ccc(NC(=O)C2(C(=O)Nc3ccc(F)cc3)CC2)cc1F` (centres undefined), in data set [1] (read-out: logP), the logP turned out to be 2.75. Besides, the pIC50 in “cells” is 6.59.

Consider `C=CCO/N=C/c1c(N)ncnc1Oc1ccc(NC(=O)C2(C(=O)Nc3ccc(F)cc3)CC2)cc1F`, for which, in data set [1] (read-out: logP), the logP worked out at 3.65. In addition, the pIC50 in the data set “cells” was 6.21.

`Nc1ncnc(Oc2ccc(NC(=O)C3(C(=O)Nc4ccc(F)cc4)CC3)cc2F)c1/C=N/OCC(=O)N1CCOCC1`: the log partition coefficient (logP) in data set [1] (read-out: logP) turned out to be 2.1. In addition, in the data set “cells”, the pIC50 was 6.40.

Take `N/N=C/c1c(N)ncnc1Oc1ccc(NC(=O)C2(C(=O)Nc3ccc(F)cc3)CC2)cc1F`: the logP in data set [1] (read-out: logP) was 2.25. In addition, the negative logarithm of the IC50 (pIC50) in “cells” is 6.12.

As to `CNc1ncnc(Oc2ccc(NC(=O)C3(C(=O)Nc4ccc(F)cc4)CC3)cc2F)c1/C=N/OC`, the log partition coefficient (logP) in data set [1] (read-out: logP) was 3.52. Also, the pIC50 was under 5.00 in data set [2], under 5.00 in data set [3] and under 6.00 in “cells”.

For `Nc1ncnc(Oc2ccc(NC(=O)C3(C(=O)Nc4ccc(F)cc4)CC3)cc2F)c1/C=N/OCc1ccccc1`, the logP in data set [1] (read-out: logP) turned out to be 4.45. In “cells”, the pIC50 is 6.25.

As for `CCCCO/N=C/c1c(N)ncnc1Oc1ccc(NC(=O)C2(C(=O)Nc3ccc(F)cc3)CC2)cc1F`, the logP in data set [1] (read-out: logP) amounted to 4.2. Moreover, the pIC50 in “cells” was 6.20.

`Nc1ncnc(Oc2ccc(NC(=O)C3(C(=O)Nc4ccc(F)cc4)CC3)cc2F)c1/C=N/OCC(O)CN1CCOCC1` (centres undefined): the log partition coefficient (logP) in data set [1] (read-out: logP) stood at 2.02. Also, the values for the negative-log IC50 (pIC50) in the data set with HUVEC and in the data set “cells” were 6.14 and 6.80, respectively.

For `CC(C)(C)OC(=O)N/N=C/c1c(N)ncnc1Oc1ccc(NC(=O)C2(C(=O)Nc3ccc(F)cc3)CC2)cc1F`, in data set [1] (read-out: logP), the lipophilicity (logP) was 3.7. The pIC50 in “cells” was 6.49.

Take `Nc1ncnc(Oc2ccc(NC(=O)C3(C(=O)Nc4ccc(F)cc4)CC3)cc2F)c1/C=N/OCCCN1CCCC1`: the log partition coefficient (logP) in data set [1] (read-out: logP) is 3.82. The pIC50 was 6.66 with HUVEC and 6.92 in the data set “cells”.

As to `CN(C)CCCO/N=C/c1c(N)ncnc1Oc1ccc(NC(=O)C2(C(=O)Nc3ccc(F)cc3)CC2)cc1F`, the logP in data set [1] (read-out: logP) was determined as 3.23. Further, the results for the pIC50 in the data set on HUVEC and in “cells” were 6.96 and 7.05, respectively.

`COc1cc2nccc(Oc3ccc(NC(=O)C4(C(=O)Nc5ccc(F)cc5)CC4)cc3)c2cc1OC` [CABOZANTINIB] had a log partition coefficient (logP) in data set [1] of 4.28.

Regarding `CO/N=C/c1c(N)ncnc1Oc1ccc(NC(=O)C2(C(=O)Nc3ccc(F)cc3)CC2)cc1F`, in data set [1] (read-out: logP), the logP turned out to be 3.04. The figures for the pIC50 with HUVEC and in “cells” were 6.49 and 6.78, respectively.

As for `CO/N=C/c1c(N)ncnc1Oc1ccc2[nH]ccc2c1`, in data set [4], the negative logarithm of the IC50 (pIC50) was 6.84.

Consider `CCO/N=C/c1c(N)ncnc1Oc1ccc(NC(=O)C2(C(=O)Nc3ccc(F)cc3)CC2)cc1F`, for which the log partition coefficient (logP) in data set [1] (read-out: logP) was 3.41. Moreover, the pIC50 in the data set “cells” is 6.67.

As to `CCOC(=O)CO/N=C/c1c(N)ncnc1Oc1ccc(NC(=O)C2(C(=O)Nc3ccc(F)cc3)CC2)cc1F`, in data set [1] (read-out: logP), the logP worked out at 3.15. In “cells”, the negative-log IC50 (pIC50) was under 6.00.
